The text below walks through data of patent publication US12679878B2, “CRF2 receptor agonists and their use in therapy” (SANOFI, priority 2020, dated 2026).

In brackets after ≈: the same amount, converted by molar mass. Starred links: 1 amine or outer side, 2 acyl side, 3 side chain; linkers in the order of their positions; H or OH if unused. Non-standard residues stand in square brackets, D forms with d. Residues, ends and D or L forms follow the SMILES beside them. Groups on a side chain read outwards from the residue. *: point of attachment. C16 diacid = O=C(O)CCCCCCCCCCCCCCC(=O)*; γGlu = O=C(O)[C@H](CCC(=O)[*:2])N[*:1]; Palmitoyl = CCCCCCCCCCCCCCCC(=O)*; Aib = CC(C)(N)C(=O)O

The target in series [1] is T1, CRF2R (Homo sapiens, UniProt Q13324).
T1 construct: expressed in transfected cells; host or cells: TeloHEAC
Kind of series: EC50 [nM] CRF2R. The source says:
Table printed on a drawing sheet, Fig. 3
Head of the field: EC50 [nM] CRF2R
The patent's description of the figure: FIG. 3: Representative sequences from peptides according to the invention with an optimized stability profile, wherein K[sema] stands for K[gGlu-C(O)(CH2)14CH3]
First copying reader's note: Second half (positions 13-38, C-term and activity) of the first table; the rows follow the same order, so the four rows of Peptide Seq. 1 are Patent Sequence N° 130, 171, 172 and 173.
Where the first naming reader finds the target: head: EC50 [nM] CRF2R

Series [2] concerns the target T2, human CRF2α receptor (Homo sapiens, UniProt Q13324).
T2 construct: expressed in transfected cells; host or cells: TeloHEAC
T2 sequence (Q13324 1-411): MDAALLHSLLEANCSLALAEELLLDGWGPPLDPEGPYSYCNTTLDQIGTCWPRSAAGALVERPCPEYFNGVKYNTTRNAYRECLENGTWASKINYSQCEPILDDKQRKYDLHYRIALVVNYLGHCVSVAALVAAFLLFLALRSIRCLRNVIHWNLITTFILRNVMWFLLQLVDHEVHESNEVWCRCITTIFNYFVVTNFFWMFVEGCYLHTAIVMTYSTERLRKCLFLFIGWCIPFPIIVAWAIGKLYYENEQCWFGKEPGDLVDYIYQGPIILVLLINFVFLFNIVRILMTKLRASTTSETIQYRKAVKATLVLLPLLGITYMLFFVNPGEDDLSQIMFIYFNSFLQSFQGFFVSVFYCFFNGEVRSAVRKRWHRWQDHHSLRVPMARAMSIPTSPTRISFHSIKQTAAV
Description: cAMP agonism at human CRF2α receptor in TeloHEAC cells, FA modified peptides (Example 19.9). It is filed as cell-based. Particulars: 0% HSA, relative to urocortin 2. An outline of the steps:
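Efficacy and EC50 are referenced to 100 nM urocortin 2 as 100%, with cAMP measured as the 665/620 nm HTRF ratio after 1 h at room temperature. Compounds (0.5 mM DMSO stock, 16 twofold dilutions) acted 30 min at 37 °C on CRF2α-expressing TeloHEAC cells, buffer containing IBMX and 0% or 0.2% HSA.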

Series [3] has as its target T3, CRF1R receptor (Homo sapiens, UniProt P34998).
T3 construct: host or cells: CHO-K1 clone 2
T3 sequence (P34998 24-415): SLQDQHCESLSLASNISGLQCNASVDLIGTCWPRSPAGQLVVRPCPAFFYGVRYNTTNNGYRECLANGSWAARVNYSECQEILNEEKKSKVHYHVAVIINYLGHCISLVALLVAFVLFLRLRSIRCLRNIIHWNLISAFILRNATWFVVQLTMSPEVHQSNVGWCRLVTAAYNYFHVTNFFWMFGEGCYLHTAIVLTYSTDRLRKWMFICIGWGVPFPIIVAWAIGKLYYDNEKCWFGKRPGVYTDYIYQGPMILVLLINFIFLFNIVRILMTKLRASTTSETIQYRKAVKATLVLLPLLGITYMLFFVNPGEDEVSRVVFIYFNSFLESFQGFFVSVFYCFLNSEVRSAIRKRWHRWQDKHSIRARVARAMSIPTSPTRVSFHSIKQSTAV
Description: cAMP activity at anti-target CRF1R, CHO-K1 cell line clone 2 (Example 19.10). It counts as cell-based. Particulars: ratio of CRF1 EC50 to CRF2 EC50. The gist of the method: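 A CRF1R-overexpressing CHO-K1 line (clone 2) was grown in F12/10% FBS/G418 and frozen in aliquots before use. The cAMP assay followed the preceding procedure, with 100% activation defined by Sauvagine at 100 nM.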

Series [4] in a line: Buffer solubility by LC-UV, pH 7.4 phosphate and pH 4.5 acetate (Example 19.11). It is filed as physicochemical. Particulars: target 10 mg/mL. Here is the method: (§1) As for example 15 above, also the chemical stability of representative examples of these FA modified peptides has been assessed, using LC-UV instead of light scattering. Solubility and chemical stability were studied in 100 mM phosphate buffer (pH 7.4) and 100 mM acetate buffer (pH 4.5). Test compound powders were dissolved in both buffers at a target concentration of 10 mg/mL and incubated for 1 hour at room temperature. After centrifugation at 2500 rcf for 15 minutes, […] of supernatant was diluted with […] of the incubation buffer and analyzed by LC-UV (Acquity UPLC-DAD, Waters). Solubility was calculated by comparing the peak area of the test compound in the buffer sample with the peak area of the same compound dissolved at 0.5 mg/ml in water:acetonitrile 1:1, 0.1% formic acid.

Series [5] is described as follows: Chemical stability as % loss by LC-UV, 28 days 40° C. vs 5° C. (Example 19.11). It counts as physicochemical. The protocol:
as §1
From the centrifuged supernatant, two additional […] aliquots were collected and diluted with […] of incubation buffer. One aliquot was stored at 5° C., while the other was stored at 40° C. After 28 days, the samples were analyzed by LC-UV. Chemical stability was calculated as % loss using the following equations: • Chemical stability (as % loss)=[(purity after 28 days at 5° C.)−(purity after 28 days at 40° C.)]×100/(purity after 28 days at 5° C.) % purity=[(peak area compound)×100/(total peak area)]

For the compound `CCCCCCCCCCCCCCCC(=O)N[C@@H](CCC(=O)NCCCC[C@H](NC(=O)[C@H](CC(C)C)NC(=O)[C@H](CCCCN)NC(=O)[C@@H](NC(=O)[C@@H]1CCCN1C(=O)[C@@H](NC(=O)[C@H](CC(=O)O)NC(=O)[C@H](CC(C)C)NC(=O)[C@H](CO)NC(=O)[C@H](CC(C)C)NC(=O)[C@@H](NC(=O)[C@@H](N)[C@@H](C)CC)C(C)C)C(C)C)[C@@H](C)CC)C(=O)N[C@@H](CCCCN)C(=O)N[C@H](C(=O)N[C@@H](CC(C)C)C(=O)N[C@@H](CC(C)C)C(=O)N[C@@H](CCC(=O)O)C(=O)N[C@@H](CCC(N)=O)C(=O)N[C@@H](CCC(=O)O)C(=O)N[C@@H](CCCCN)C(=O)N[C@@H](CCC(N)=O)C(=O)N[C@@H](CCC(=O)O)C(=O)N[C@@H](CCCCN)C(=O)N[C@@H](CCC(=O)O)C(=O)N[C@@H](CCCCN)C(=O)N[C@@H](CCC(N)=O)C(=O)N[C@@H](CCC(N)=O)C(=O)N[C@@H](C)C(=O)N[C@@H](CCC(=O)O)C(=O)N[C@H](C(=O)N[C@@H](CC(N)=O)C(=O)N[C@@H](C)C(=O)N[C@@H](CCC(N)=O)C(=O)N[C@H](C(=O)N[C@@H](CC(C)C)C(=O)N[C@@H](C)C(=O)N[C@@H](CCC(N)=O)C(=O)N[C@H](C(N)=O)C(C)C)[C@@H](C)CC)[C@@H](C)O)[C@@H](C)CC)C(=O)O` [SEQ ID NO: 2] (H-IVLSLDVPIKLK([γGlu-Palmitoyl])KILLEQEKQEKEKQQAETNAQILAQV-NH2), the response in series [1] was half-maximal at 0.07 nM (EC50).

Turning to `CCCCCCCCCCCCCCCC(=O)N[C@@H](CCC(=O)NCCCC[C@H](NC(=O)[C@H](CC(C)C)NC(=O)[C@H](CCCCN)NC(=O)[C@@H](NC(=O)[C@@H]1CCCN1C(=O)[C@@H](NC(=O)[C@H](CC(=O)O)NC(=O)[C@H](CC(C)C)NC(=O)[C@H](CO)NC(=O)[C@H](CC(C)C)NC(=O)[C@@H](NC(=O)[C@@H](N)[C@@H](C)CC)C(C)C)C(C)C)[C@@H](C)CC)C(=O)N[C@@H](CCCCN)C(=O)N[C@H](C(=O)N[C@@H](CC(C)C)C(=O)N[C@@H](CC(C)C)C(=O)N[C@@H](CCC(=O)O)C(=O)N[C@@H](CCC(N)=O)C(=O)N[C@@H](CCC(=O)O)C(=O)N[C@@H](CCCCN)C(=O)N[C@@H](CCC(N)=O)C(=O)N[C@@H](CCC(=O)O)C(=O)N[C@@H](CCCCN)C(=O)N[C@@H](CCC(=O)O)C(=O)N[C@@H](CCCCN)C(=O)N[C@@H](CCC(N)=O)C(=O)N[C@@H](CCC(N)=O)C(=O)N[C@@H](C)C(=O)N[C@@H](CCC(=O)O)C(=O)N[C@@H](CCCCN)C(=O)N[C@@H](CC(N)=O)C(=O)N[C@@H](C)C(=O)N[C@@H](CCC(N)=O)C(=O)N[C@H](C(=O)N[C@@H](CC(C)C)C(=O)N[C@@H](C)C(=O)N[C@@H](CCC(N)=O)C(=O)N[C@H](C(N)=O)C(C)C)[C@@H](C)CC)[C@@H](C)CC)C(=O)O` [SEQ ID NO: 3] (H-IVLSLDVPIKLK([γGlu-Palmitoyl])KILLEQEKQEKEKQQAEKNAQILAQV-NH2), a half-maximal response in series [1] (EC50) required 0.04 nM.

For the compound `CCCCCCCCCCCCCCCC(=O)N[C@@H](CCC(=O)NCCCC[C@H](NC(=O)[C@H](CC(C)C)NC(=O)CNC(=O)[C@@H](NC(=O)[C@@H]1CCCN1C(=O)[C@@H](NC(=O)[C@H](CC(=O)O)NC(=O)[C@H](CC(C)C)NC(=O)[C@H](CO)NC(=O)[C@H](CC(C)C)NC(=O)[C@@H](NC(=O)[C@@H](N)[C@@H](C)CC)C(C)C)C(C)C)[C@@H](C)CC)C(=O)N[C@@H](CCC(N)=O)C(=O)N[C@@H](CCCCN)C(=O)N[C@@H](CC(C)C)C(=O)N[C@@H](CC(C)C)C(=O)N[C@@H](CCCCN)C(=O)N[C@@H](CCC(N)=O)C(=O)N[C@@H](CCC(=O)O)C(=O)N[C@@H](CCCCN)C(=O)N[C@@H](CCC(N)=O)C(=O)N[C@@H](CCC(=O)O)C(=O)N[C@@H](CCCCN)C(=O)N[C@@H](CCC(=O)O)C(=O)N[C@@H](CCCCN)C(=O)N[C@@H](CCC(N)=O)C(=O)N[C@@H](CCC(N)=O)C(=O)N[C@@H](C)C(=O)N[C@@H](CCC(=O)O)C(=O)N[C@H](C(=O)N[C@@H](CC(N)=O)C(=O)N[C@@H](C)C(=O)N[C@@H](CCCCN)C(=O)N[C@H](C(=O)N[C@@H](CC(C)C)C(=O)N[C@@H](C)C(=O)N[C@@H](CCC(N)=O)C(=O)N[C@H](C(N)=O)C(C)C)[C@@H](C)CC)[C@@H](C)O)C(=O)O` [SEQ ID NO: 4] (H-IVLSLDVPIGLK([γGlu-Palmitoyl])QKLLKQEKQEKEKQQAETNAKILAQV-NH2), in series [1], the EC50 – broadly, the concentration needed to bring the measured effect to its halfway point – came out at 0.05 nM.

On to `CC[C@H](C)[C@H](N)C(=O)N[C@H](C(=O)N[C@@H](CC(C)C)C(=O)N[C@@H](CO)C(=O)N[C@@H](CC(C)C)C(=O)N[C@@H](CC(=O)O)C(=O)N[C@@H](C(=O)N1CCC[C@H]1C(=O)N[C@H](C(=O)N[C@@H](CCCCN)C(=O)N[C@@H](CC(C)C)C(=O)N[C@@H](CCCCNC(=O)CC[C@H](NC(=O)CCCCCCCCCCCCCCC(=O)O)C(=O)O)C(=O)N[C@@H](CCC(N)=O)C(=O)N[C@H](C(=O)N[C@@H](CC(C)C)C(=O)N[C@@H](CC(C)C)C(=O)N[C@@H](CCCCN)C(=O)N[C@@H](CCC(N)=O)C(=O)N[C@@H](CCC(=O)O)C(=O)N[C@@H](CCCNC(=N)N)C(=O)N[C@@H](CCC(N)=O)C(=O)N[C@@H](CCCCN)C(=O)NC(C)(C)C(=O)N[C@@H](CCC(N)=O)C(=O)N[C@@H](CCCNC(=N)N)C(=O)N[C@@H](CCC(N)=O)C(=O)N[C@@H](CCC(N)=O)C(=O)N[C@@H](C)C(=O)N[C@@H](CCC(=O)O)C(=O)N[C@@H](CCCCN)C(=O)N[C@@H](CC(N)=O)C(=O)N[C@@H](CCCCN)C(=O)N[C@@H](CCC(N)=O)C(=O)N[C@H](C(=O)N[C@@H](CC(C)C)C(=O)N[C@@H](C)C(=O)N[C@@H](CCC(N)=O)C(=O)N[C@H](C(N)=O)C(C)C)[C@@H](C)CC)[C@@H](C)CC)[C@@H](C)CC)C(C)C)C(C)C` [compound 188] (H-IVLSLD[dV]PIKLK([γGlu-C16 diacid])QILLKQERQK[Aib]QRQQAEKNKQILAQV-NH2; N-terminus assumed), for which the EC50 in series [2] was determined as 0.46 nM. In series [3], the CRF1/CRF2 ratio is 134. Moreover, the solubility (commonly the concentration that dissolves in the medium under given conditions) at 1 h in series [4] (pH 4.5, 100 mM acetate buffer) turned out to be 8300 µg/mL (≈ 1710 µM); in series [4] (pH 7.4, 100 mM phosphate buffer), 7900 µg/mL (≈ 1630 µM). The “% loss (chemical stability)” value stood at 0% in series [5] (pH 4.5) and 40% in series [5] (pH 7.4).
